Target: CDK2 (UniProt P24941)
Experiment: Enzyme Assay

Row | IC50 [µM] | Compound
1 | 0.01 to 0.1 | NS(=O)(=O)c1ccc(N/C=C2\C(=O)Nc3ncc(Br)cc32)cc1
2 | 0.01 to 0.1 | NS(=O)(=O)c1ccc(N/C=C2\C(=O)Nc3ccncc32)cc1
3 | 0.1 to 1 | O=C1Nc2nc(Cl)ccc2/C1=C/Nc1ccc2cn[nH]c2c1
4 | 0.01 to 0.1 | NS(=O)(=O)c1ccc(N/C=C2\C(=O)Nc3ncc(-c4ccco4)cc32)cc1
5 | 0.01 to 0.1 | O=C1Nc2ncc(Br)cc2/C1=C/Nc1ccc2cn[nH]c2c1
6 | 1 to 10 | NS(=O)(=O)c1ccc(N/C=C2\C(=O)Nc3ncc(-c4ccccc4)cc32)cc1
7 | 1 to 10 | O=C1Nc2ncc(-c3ccco3)cc2/C1=C/Nc1ccc2cn[nH]c2c1
8 | 0.1 to 1 | NS(=O)(=O)c1ccc(N/C=C2\C(=O)Nc3nc(Cl)ccc32)cc1
9 | 0.01 to 0.1 | NS(=O)(=O)c1ccc(N/C=C2\C(=O)Nc3cnccc32)cc1
10 | 0.1 to 1 | CCOC(=O)c1cnc2c(c1)/C(=C\Nc1ccc3ncccc3c1)C(=O)N2
11 | 0.1 to 1 | O=C1Nc2ncc(-c3ccsc3)cc2/C1=C/Nc1ccc2cn[nH]c2c1
12 | 0.01 to 0.1 | CCOC(=O)c1cnc2c(c1)/C(=C/Nc1ccc3cn[nH]c3c1)C(=O)N2
13 | 0.1 to 1 | NS(=O)(=O)c1ccc(N/C=C2\C(=O)Nc3ncc(-c4ccsc4)cc32)cc1
14 | 0.1 to 1 | NS(=O)(=O)c1ccc(N/C=C2\C(=O)Nc3ncccc32)cc1
15 | 0.01 to 0.1 | O=C1Nc2ncc(Br)cc2/C1=C/Nc1ccc2ncccc2c1
16 | 0.01 to 0.1 | CCOC(=O)c1cnc2c(c1)/C(=C/Nc1ccc(S(N)(=O)=O)cc1)C(=O)N2

From the Kinase Knowledgebase extract (Sharma et al. 2016)
